Measurements: patent publication US11708562B2, “Differentiation of human embryonic stem cells” (Janssen Biotech, Inc., priority 2006, dated 2023)

Tested on: H9P33, H9P44 and H9P48 cells
Experiment: Microarray analysis of definitive endoderm on MEFs vs MATRIGEL +/- Wnt-3A (Table VI)
Details: DE treatment in low serum, on MATRIGEL
Protocol: Controls for each group included cells plated on […]-coated dishes and cultured in MEF-conditioned medium or cells plated on MEFs and cultured in ES medium. All groups contained three biological replicates and each biological replicate was repeated on two separate gene chips.
Sample preparation, hybridization, and image analysis were performed according to the Affymetrix Human Genome U133 Plus 2.0 Array. Following normalization and a log transformation, data analysis was performed using OmniViz® software (MA) and […] (VizXLabs, WA). Significant differences in gene expression between the samples were evaluated using analysis of variance and an F-test with adjusted P-value (Benjamini and Hochberg correction) of ≤0.05. Only genes with a present call in at least one group were included in the analysis.

With “Activin A: a member of the TGFβ superfamily; growth factor (R&D Systems) used to differentiate human embryonic stem cells” the “mean normalized intensity (log format), 6-phosphofructo-2-kinasefructose-2,6-biphosphatase 4” value was −0.2429, the “mean normalized intensity (log format), Cluster Incl. AB028021: Homo sapiens HNF-3beta mRNA for hepatocyte nuclear factor-3 beta” value was −1.5339 and the “mean normalized intensity (log format), ESTs” value was −3.574. For the same substance, the “mean normalized intensity (log format), ESTs, Highly similar to IHH_HUMAN INDIAN HEDGEHOG PROTEIN PRECURSOR (H. sapiens)” value was −0.654, the “mean normalized intensity (log format), ESTs, Moderately similar to JE0284 Mm-1 cell derived transplantability-associated protein 1b (H. sapiens)” value was −2.377 and the “mean normalized intensity (log format), ESTs, Weakly similar to FCE2 MOUSE LOW AFFINITY IMMUNOGLOBULIN EPSILON FC RECEPTOR (M. musculus)” value was 0.4942. For the same substance, the “mean normalized intensity (log format), ESTs, Weakly similar to the 331st table hypothetical protein KIAA0555 (H. sapiens)” value was −1.574, the “mean normalized intensity (log format), G protein-coupled receptor” value was 1.507 and the “mean normalized intensity (log format), G protein-coupled receptor 49” value was 0.2655. The “mean normalized intensity (log format), Homo sapiens HNF-3beta mRNA for hepatocyte nuclear factor-3 beta” value was −2.718, the “mean normalized intensity (log format), Homo sapiens KIAA0878 protein (KIAA0878), mRNA” value was 2.0265 and the “mean normalized intensity (log format), Homo sapiens Kell blood group (KEL), mRNA” value was −2.205. The “mean normalized intensity (log format), Homo sapiens MLL septin-like fusion (MSF), mRNA” value was −3.292, the “mean normalized intensity (log format), Homo sapiens Mix-like homeobox protein 1 (MILD1) mRNA” value was −1.546 and the “mean normalized intensity (log format), Homo sapiens Rho GTPase activating protein 6 (ARHGAP6), transcript variant 2, mRNA” value was −1.104. The “mean normalized intensity (log format), Homo sapiens TBX3-iso protein (TBX3-iso), mRNA” value was −2.346, the “mean normalized intensity (log format), Homo sapiens angiopoietin 2 (ANGPT2), mRNA” value was −2.93 and the “mean normalized intensity (log format), Homo sapiens ankyrin-like with transmembrane domains 1 (ANKTM1), mRNA” value was −1.109. For the same substance, the “mean normalized intensity (log format), Homo sapiens apolipoprotein A-I (APOA1), mRNA” value was −1.471, the “mean normalized intensity (log format), Homo sapiens apolipoprotein A-II (APOA2), mRNA” value was −1.033 and the “mean normalized intensity (log format), Homo sapiens arylsulfatase E (chondrodysplasia punctata 1) (ARSE), mRNA” value was 0.283. The “mean normalized intensity (log format), Homo sapiens atrophin-1 interacting protein 1; activin receptor interacting protein 1 (KIAA0705), mRNA” value was −4.308, the “mean normalized intensity (log format), Homo sapiens beta-site APP cleaving enzyme (BACE) mRNA” value was −2.0354 and the “mean normalized intensity (log format), Homo sapiens cDNA FLJ11550 fis, clone HEMBA1002970” value was −1.222. The “mean normalized intensity (log format), Homo sapiens cDNA FLJ12993 fis, clone NT2RP3000197” value was 0.1473, the “mean normalized intensity (log format), Homo sapiens cDNA FLJ13221 fis, clone NT2RP4002075” value was 0.3557 and the “mean normalized intensity (log format), Homo sapiens cardiac ventricular troponin C mRNA” value was −0.5497. For the same substance, the “mean normalized intensity (log format), Homo sapiens cartilage linking protein 1 (CRTL1), mRNA” value was −1.315, the “mean normalized intensity (log format), Homo sapiens cell adhesion molecule with homology to L1CAM (close homologue of L1) (CHL1), mRNA” value was −0.5412 and the “mean normalized intensity (log format), Homo sapiens chromosome 19, cosmid R31181” value was −0.2589. The “mean normalized intensity (log format), Homo sapiens clone 23736 mRNA sequence” value was −0.04718, the “mean normalized intensity (log format), Homo sapiens cryptic mRNA, complete cds” value was 0.1049 and the “mean normalized intensity (log format), Homo sapiens cystatin S (CST4), mRNA” value was 0.9245. The “mean normalized intensity (log format), Homo sapiens cystatin SA (CST2), mRNA” value was −0.1022, the “mean normalized intensity (log format), Homo sapiens cystatin SN (CST1), mRNA” value was 0.07293 and the “mean normalized intensity (log format), Homo sapiens cytidine deaminase (CDA), mRNA” value was −3.891. For the same substance, the “mean normalized intensity (log format), Homo sapiens dual specificity phosphatase 4 (DUSP4), mRNA” value was 0.9539, the “mean normalized intensity (log format), Homo sapiens fibroblast growth factor 8 (androgen-induced) (FGF8), mRNA” value was −4.328 and the “mean normalized intensity (log format), Homo sapiens fibroblast growth factor 17 (FGF17), mRNA” value was −0.8946. The “mean normalized intensity (log format), Homo sapiens frizzled-related protein (FRZB), mRNA” value was 0.565, the “mean normalized intensity (log format), Homo sapiens gastrin-releasing peptide (GRP), mRNA” value was −2.741 and the “mean normalized intensity (log format), Homo sapiens glycophorin B (includes Ss blood group) (GYPB), mRNA” value was −0.9473. The “mean normalized intensity (log format), Homo sapiens glycophorin E (GYPE), mRNA” value was −2.016, the “mean normalized intensity (log format), Homo sapiens glycophorin Erik STA (GPErik) gene” value was −1.194 and the “mean normalized intensity (log format), Homo sapiens growth differentiation factor 3 (GDF3), mRNA” value was 1.673. For the same substance, the “mean normalized intensity (log format), Homo sapiens haptoglobin (HP), mRNA” value was −1.101, the “mean normalized intensity (log format), Homo sapiens haptoglobin-related protein (HPR), mRNA” value was −2.6068 and the “mean normalized intensity (log format), Homo sapiens homeobox protein goosecoid mRNA, complete cds” value was −4.42. The “mean normalized intensity (log format), Homo sapiens hypothetical protein FLJ10718 (FLJ10718), mRNA” value was 2.605, the “mean normalized intensity (log format), Homo sapiens hypothetical protein FLJ10970 (FLJ10970), mRNA” value was −0.432 and the “mean normalized intensity (log format), Homo sapiens hypothetical protein FLJ11316 (FLJ11316), mRNA” value was −0.9047. The “mean normalized intensity (log format), Homo sapiens hypothetical protein FLJ22252 similar to SRY-box containing gene 17 (FLJ22252), mRNA” value was 1.368, the “mean normalized intensity (log format), Homo sapiens hypothetical protein FLJ23403 (FLJ23403), mRNA” value was −1.485 and the “mean normalized intensity (log format), Homo sapiens lumican (LUM), mRNA” value was −4.057. The “mean normalized intensity (log format), Homo sapiens mRNA for GATA-6, complete cds” value was 2.219, the “mean normalized intensity (log format), Homo sapiens mRNA for KIAA1409 protein, partial cds” value was 0.3683 and the “mean normalized intensity (log format), Homo sapiens mRNA; cDNA DKFZp434D0818 (from clone DKFZp434D0818)” value was −2.634. The “mean normalized intensity (log format), Homo sapiens mRNA; cDNA DKFZp586J0624 (from clone DKFZp586J0624)” value was −0.8352, the “mean normalized intensity (log format), Homo sapiens matrix metalloproteinase 14 (membrane-inserted) (MMP14), mRNA” value was −0.7235 and the “mean normalized intensity (log format), Homo sapiens phorbolin-like protein MDS019 (MDS019), mRNA” value was −1.119. For the same substance, the “mean normalized intensity (log format), Homo sapiens presenilin stabilization factor b (PSF) mRNA” value was −0.8617, the “mean normalized intensity (log format), Homo sapiens reserved (KCNK12), mRNA” value was −0.4687 and the “mean normalized intensity (log format), Homo sapiens retinoid X receptor, gamma (RXRG), mRNA” value was −2.375. The “mean normalized intensity (log format), Homo sapiens sema domain, immunoglobulin domain (Ig), short basic domain, secreted, (semaphorin) 3E (SEMA3E), mRNA” value was −0.786, the “mean normalized intensity (log format), Homo sapiens sema domain, seven thrombospondin repeats, (semaphorin) 5A (SEMA5A), mRNA” value was −1.533 and the “mean normalized intensity (log format), Homo sapiens solute carrier family 16 (monocarboxylic acid transporters), member 3 (SLC16A3), mRNA” value was 0.7103. For the same substance, the “mean normalized intensity (log format), Homo sapiens solute carrier family 21 (prostaglandin transporter), member 2 (SLC21A2), mRNA” value was 0.7114, the “mean normalized intensity (log format), Homo sapiens type VI collagen alpha 2 chain precursor (COL6A2) mRNA” value was 1.7011 and the “mean normalized intensity (log format), Homo sapiens, alpha-1 (VI) collagen” value was −3.662. For the same substance, the “mean normalized intensity (log format), Homo sapiens, clone MGC: 4655, mRNA” value was 2.3772 and the “mean normalized intensity (log format), Human (clone 8B1) Br-cadherin mRNA” value was −2.179.
